The structures appear in SMILES notation.

In assay [1] the test system is Staphylococcus pseudintermedius isolates (MSSP and MRSP). In words: Disk diffusion and Epsilometer susceptibility testing, Example 6. It is filed as cell-based. Particulars: 13 MRSP isolates. In general terms: In agar diffusion tests the substance spreads into inoculated agar from a disc or well.
The test system of assay [2] is S. aureus isolates (HA-MRSA, CA-MRSA, methicillin-susceptible staphylococci). Nature of the assay: Kirby-Bauer disc diffusion resistotyping, Example 4. It is filed as cell-based, Staphylococcus aureus. To be noted: for Total isolates resistant (Kirby-Bauer disc diffusion): all isolates (n = 30). As for the experimental part: Antibiotic-susceptibility profiling of the isolate collection was undertaken using Kirby-Bauer disc diffusion, as recommended by the Clinical and Laboratory Standards Institute (CLSI) on Mueller-Hinton agar. Isolates were grown overnight on SBA at 37° C. Colonies were suspended in physiological saline. Turbidity was adjusted to a 0.5 McFarland standard and suspensions were spread over the medium. Antibiotic discs according to Table 9 below were transferred onto the inoculated medium and analysed after 24 h incubation at 37° C.

The test system of assay [3] is S. pneumoniae isolates. Nature of the assay: Disk diffusion susceptibility (CLSI/EUCAST), Example 5. In kind it is cell-based, Streptococcus pneumoniae. Here is the method: Isolate susceptibility to 12 different antimicrobials (Table 16) was determined by CLSI and European Committee on Antimicrobial Susceptibility Testing (EUCAST) methods. Antimicrobials were selected based upon the CLSI and EUCAST guidelines. Standardised bacterial suspensions were spread onto MHSBA using a sterile cotton swab. Bacterial suspensions from of Streptococcus pneumoniae were standardised to an OD6O0 between 0.08 and 0.1 using a spectrophotometer and then diluted 1:20. Bacterial colonies were taken from an O/N horse blood agar plate. To ensure the purity of the 1:20 bacterial suspension, 50 μL was spread plated onto horse blood agar and incubated O/N at 37° C. with 5% CO2. The CFU was calculated and compared to the initial plate counts. Antibiotic disks (Purchased from Sigma Aldrich) were placed using a disk dispenser (Purchased from Oxoid) according to CLSI standards. MHSBA plates were incubated for 16 h-24 h at 37° C. in 5% CO2. Zones of complete inhibition were measured in triplicate to the nearest millimeter using a ruler on natural light-reflected growth, and the mode was represented as the diameter for each isolate. Pneumococcal isolates were categorised as sensitive, intermediate (I) or resistant (R) by CLSI standards and quality control (QC) ranges (Table 16).

[4] abbreviates: Methicillin-susceptible staphylococci (n = 10).

Take `CO[C@@]1(NC(=O)C2SC(=C(C(N)=O)C(=O)O)S2)C(=O)N2C(C(=O)O)=C(CSc3nnnn3C)CS[C@@H]21` (some centres unmarked) [Cefotetan]: the MRSP isolates susceptible in assay [1] stood at 92%. The results for the “isolates resistant (Kirby-Bauer disc diffusion)” value in assay [2] (CA-MRSA (n = 10)), in assay [2] (HA-MRSA (n = 10)) and in assay [2] (setting [4]) were 20.00%, 80.00% and 0.00%, respectively. Besides, the “resistant isolates, number (percentage)” value was 2 (100%) in assay [2] (Unclassified (n = 2), Overall); 4 (100%) in assay [2] (mec gene complex A (n = 4), Overall); 3 (100%) in assay [2] (mec gene complex A (n = 4), SCCmec type II); 1 (100%) in assay [2] (mec gene complex A (n = 4), SCCmec type III); 2 (20%) in assay [2] (mec gene complex B (n = 10), Overall); 1 (50%) in assay [2] (mec gene complex B (n = 10), SCCmec type I). Moreover, the “resistant isolates, number (percentage)” value in assay [2] (mec gene complex B (n = 10), SCCmec type IV) is given as 1 (12.5%); in assay [2] (mec gene complex C2 (n = 4), Overall), 2 (50%); in assay [2] (mec gene complex C2 (n = 4), SCCmec type V), 2 (50%). For the same compound, the “Total isolates resistant (Kirby-Bauer disc diffusion)” value (“Total isolates resistant” below) in assay [2] was 33.33%.
With `CC1=C(C(=O)O)N2C(=O)[C@@H](NC(=O)[C@H](N)c3ccccc3)[C@H]2SC1` [Cephalexin], the “isolates resistant (Kirby-Bauer disc diffusion)” value stood at 20.00% in assay [2] (CA-MRSA (n = 10)), 80.00% in assay [2] (HA-MRSA (n = 10)) and 10.00% in assay [2] (setting [4]). The “Total isolates resistant” value in assay [2] worked out at 40.00%.
For the compound `CCC[C@@H]1C[C@@H](C(=O)N[C@@H]([C@H]2O[C@H](SC)[C@H](O)[C@@H](O)[C@H]2O)[C@H](C)Cl)N(C)C1` [Clindamycin], the “disk diffusion zone diameter” value in assay [3] (A66.1) amounted to 34 mm; in assay [3] (D39) it was 27 mm; in assay [3] (EF3030), 26 mm; in assay [3] (L82016), 32 mm; in assay [3] (P9), 31 mm; in assay [3] (P21), 25 mm. Besides, the “disk diffusion zone diameter” value in assay [3] (TIGR4) is given as 28 mm; in assay [3] (WCH16) it was 28 mm; in assay [3] (WCH43), 22 mm; in assay [3] (WCH46), 30 mm; in assay [3] (WCH57), 34 mm; in assay [3] (WCH77), 28 mm. The “disk diffusion zone diameter” value in assay [3] (WCH86) is reported as 30 mm; in assay [3] (WCH89), 27 mm; in assay [3] (WCH92), 24 mm; in assay [3] (WCH137), 26 mm; in assay [3] (WCH158), 32 mm; in assay [3] (WCH184), 10 mm. Further, the “disk diffusion zone diameter” value in assay [3] (WCH211) and in assay [3] (WU2) was 27 mm each time. In assay [3] (WCH184 (Table 18)), the “disk diffusion susceptibility category” value is “R”. For the same compound, the entries for the “isolates resistant (Kirby-Bauer disc diffusion)” value in assay [2] (CA-MRSA (n = 10)), in assay [2] (HA-MRSA (n = 10)) and in assay [2] (setting [4]) were 50.00%, 50.00% and 30.00%, respectively. The “Total isolates resistant” value in assay [2] and in assay [2] (listed as clindamycin) was 43.33% in each case.
With `CC1(C)S[C@@H]2[C@H](NC(=O)Cc3ccccc3)C(=O)N2[C@H]1C(=O)O` [Penicillin-G], the “isolates resistant (Kirby-Bauer disc diffusion)” value in assay [2] (CA-MRSA (n = 10)) stood at 100.00%; in assay [2] (HA-MRSA (n = 10)), 100.00%; in assay [2] (setting [4]), 50.00%. In addition, the “Total isolates resistant” value in assay [2] and in assay [2] (listed as penicillin-G) was 83.33% each time.
`CO[C@H]1/C=C/O[C@@]2(C)Oc3c(C)c(O)c4c(O)c(c(/C=N/N5CCN(C)CC5)c(O)c4c3C2=O)NC(=O)/C(C)=C\C=C\[C@H](C)[C@H](O)[C@@H](C)[C@@H](O)[C@@H](C)[C@H](OC(C)=O)[C@@H]1C` [Rifampicin]: the “disk diffusion zone diameter” value is reported as 32 mm in assay [3] (A66.1); 28 mm in assay [3] (D39); 32 mm in assay [3] (EF3030); 26 mm in assay [3] (L82016); 27 mm in assay [3] (P9); 32 mm in assay [3] (P21). The “disk diffusion zone diameter” value in assay [3] (TIGR4) amounted to 30 mm; in assay [3] (WCH16) it was 30 mm; in assay [3] (WCH43) it was 27 mm; in assay [3] (WCH46) it was 29 mm; in assay [3] (WCH57), 38 mm; in assay [3] (WCH77), 33 mm. Further, the “disk diffusion zone diameter” value in assay [3] (WCH86) came to 31 mm; in assay [3] (WCH89) it was 32 mm; in assay [3] (WCH92), 22 mm; in assay [3] (WCH137), 30 mm; in assay [3] (WCH158) it was 34 mm; in assay [3] (WCH184), 32 mm. Moreover, the figures for the “disk diffusion zone diameter” value in assay [3] (WCH211) and in assay [3] (WU2) were 32 mm and 31 mm, respectively. Also, the “isolates resistant (Kirby-Bauer disc diffusion)” value in assay [2] (CA-MRSA (n = 10)) came to 0.00%; in assay [2] (HA-MRSA (n = 10)), 10.00%; in assay [2] (setting [4]), 0.00%. The “Total isolates resistant” value in assay [2] and in assay [2] (listed as rifampicin) was 3.33% each time.
